Data from paper PMC9820082, “Synthesis of 9-Hydroxy-1H-Benzo[f]chromene Derivatives with Effective Cytotoxic Activity on MCF7/ADR, P-Glycoprotein Inhibitors, Cell Cycle Arrest and Apoptosis Effects” (International Journal of Molecular Sciences, 2022).

What was measured:
[1] = system: SKOV-3 (ovarian cancer cell line); experiment: MTT colorimetric cytotoxicity assay, SKOV-3; format: cell-based, human; settings: Homo sapiens, SK-OV-3, 24 h, 24 h incubation, mean ± standard error
Experimental: (§1) Three human cancer cell lines, PC-3 (human prostate adenocarcinoma, metastatic), […], were used to test the anti-proliferative activity of β-enaminonitrile (4a–p) using the MTT colorimetric assay at concentrations ranging from 0–100 μM. The representative active cytotoxic substances 4a, 4c, 4d, 4e, 4g, 4i, 4k and 4o were also tested against two normal cell lines, human fetal lung (HFL-1) and human diploid fibroblasts (WI-38), as well as Adriamycin (ADR)-resistant human breast cancer cells (MCF-7/ADR). The reference cytotoxic agents, Vinblastine and Doxorubicin, were used in the tests.
(§2) The cytotoxic activity was appraised using the 3-(4,5-dimethylthiazol-2-yl)-2,5-diphenyltetrazolium bromide (MTT) colorimetric assay for the antitumor cell lines, as reported previously, and the ELISA assay for MCF-7/ADR [69].

[2] = system: PC-3 (human prostate adenocarcinoma, metastatic); experiment: MTT colorimetric cytotoxicity assay, PC-3; format: cell-based; settings: Homo sapiens; MTT, 24 h incubation, mean ± standard error
Experimental: as §1
(§3) The tumor cell lines MCF-7, HepG-2, PC-3 MCF-7/ADR, HFL-1 and (WI-38) were obtained from the American Type Culture Collection (ATCC, Rockville, MD, USA). The cells were grown on RPMI-1640 medium supplemented with 10% inactivated fetal calf serum and 50 µg/mL gentamycin. The cells were maintained at 37 ^οC in a humidified atmosphere with 5% CO2 and were subcultured two to three times a week.
as §2

[3] = system: HeLa (cervical cancer cell line); experiment: MTT colorimetric cytotoxicity assay, HeLa; format: cell-based, human; settings: 24 h incubation, mean ± standard error
Experimental: as §1, §2

[4] = system: MCF-7/ADR cells; experiment: Annexin V/PI double staining flow cytometric apoptosis test; format: cell-based, human; settings: IC50 value, 24 h
Text: One of the optional mechanisms regarding the lethal action of chemotherapeutic medicines is blocking cell cycle progression, triggering apoptosis with otherwise mutual effect. […] The pivotal relation of the newly synthesized MCF-7/ADR “anticancer drugs” was further evaluated using the Annexin V/PI double staining flow cytometric test. […] In comparison to Doxorubicin’s 30% total apoptosis rate, which was nearly identical to 4a, 4c and 4g, compounds 4d, 4e and 4i were leading with percentages of 41%, 31% and 38%, respectively. Only compounds 4a (8.5%) and 4g (11%) had greater effects on necrosis compared to doxorubicin (5%). Other examined substances caused both early and late apoptosis in all treated cells (Figure 7b). Therefore, MCF-7/ADR cytotoxicity is induced by apoptotic processes, apparently without negative effects on P-gp.
(a) The dot plot of the Annexin V/PI-stained cells, treated with the indicated drugs. […] The data are expressed as the mean ± SD of three independent experiments in triplicate. Significances are shown in comparison to control cells (* p < 0.001). TEXT PRINTED IN THE PICTURE: (a) DOX.: 3.33%; 18.41%; 7.85% | (a) 4a: 8.66%; 18.17%; 4.24% | (a) 4c: 2.74%; 12.73%; 9.11% | (a) 4d: 4.85%; 27.44%; 8.73% | (a) 4e: 5.77%; 9.92%; 15.92% | (a) 4g: 11.04%; 3.94%; 7.38% | (a) 4i: 5.54%; 12.87%; 19.61% DOUBTS OF THE COPYIST ABOUT THIS PICTURE: The quadrant percentages in panel (a) are printed very small and blurred, so 3, 5, 6, 8 and 9 cannot be told apart with certainty. […] They are told apart only by their quadrant in the PI / Annexin V-FITC plot, and are listed upper left, upper right, lower right. / The sample line in each plot reads MCF7/ADR. In the 4g plot it is cut off as 'MCF7/AI'. / The panel 'Cont.' (untreated control: 1.56%, 0.15%, 0.48%) is left out because it is not a substance.

[5] = system: Adriamycin (ADR)-resistant human breast cancer cells (MCF-7/ADR); experiment: Cytotoxicity against MCF-7/ADR cells; format: cell-based; settings: 24 h exposure, mean ± standard error
Experimental: as §1, §3, §2

[6] = system: P-glycoprotein (P-gp); experiment: P-gp content in MCF-7/ADR cell lysate (human P-gp ELISA kit); format: cell-based; settings: human, MCF-7/ADR cells (cell lysate); MCF-7/ADR cell lysate, 48 h, ELISA
Experimental: P-glycoprotein (P-gp)-mediated multidrug resistance (MDR) is a phenomenon in which cells become resistant to structurally and mechanistically unrelated drugs, resulting in low intracellular drug concentrations. It is one of the noteworthy problems in malignant tumor clinical therapeutics.
The content of P-gp in the MCF-7/ADR cell lysates after incubation with varying conc. (12.5–100 µM) of tested compounds 4a, 4c, 4d, 4e, 4g and 4i following exposure for 48 hr was determined using a commercial human P-gp (Permeability Glycoprotein) ELISA Kit (MBS2506188, MyBioSource Inc., San Diego, CA, USA). Absorption was recorded at 450 nm with a Spectramax Gemini fluorescence microplate reader (Molecular Devices, Sunnyvale, CA, USA).

[7] = system: human diploid fibroblasts (WI-38); experiment: Cytotoxicity against normal cell line WI-38; format: cell-based; settings: Homo sapiens, WI-38, 24 h, 24 h incubation, mean ± standard error
Experimental: as §1, §3, §2

[8] = system: human fetal lung (HFL-1); experiment: Cytotoxicity against normal cell line HFL-1; format: cell-based; settings: Homo sapiens, HFL1, 24 h, 24 h incubation, mean ± standard error
Experimental: as §1, §3, §2

[9] = Homo sapiens, NCI/ADR-RES, 24 h

In the case of `N#CC1=C(N)Oc2ccc3ccc(O)cc3c2C1c1c(F)cccc1Cl` (stereo not shown) [4h, 3-Amino-1-(2-Chloro-6-Flourophenyl)-9-Hydroxy-1H-Benzo[f]chromene-2-Carbonitrile], the IC50 [1] is reported as 3.1 ± 0.2 µM, the IC50 [2] is reported as 11.6 ± 0.8 µM and the IC50 ([3]; Homo sapiens, HeLa, 24 h) is reported as 4.7 ± 0.5 µM. It also gave a melting point of 298 to 299 °C.

In the case of `N#CC1=C(N)Oc2ccc3ccc(O)cc3c2C1c1c(F)cccc1F` (stereo not shown) [4b, 3-Amino-1-(2,6-Difluorophenyl)-9-Hydroxy-1H-Benzo[f]chromene-2-Carbonitrile], the IC50 [1] is reported as 2 ± 0.2 µM, the IC50 [2] is reported as 9.4 ± 0.5 µM and the IC50 ([3]; Homo sapiens, HeLa, 24 h) is reported as 6.7 ± 0.2 µM. It also gave a melting point of 193 to 194 °C.

`COc1cccc2c1C(=O)c1c(O)c3c(c(O)c1C2=O)C[C@@](O)(C(=O)CO)C[C@@H]3O[C@H]1C[C@H](N)[C@H](O)[C@H](C)O1` [Doxorubicin, reference compound] gave a necrosis [4] of 5%, an IC50 [5, 9] of 18.6 ± 0.2 µM and an IC50 [1] of 1.1 ± 0.2 µM. The IC50 at 48 h [6] was 50.9 µM, the IC50 [2] was 1.3 ± 0.3 µM and the IC50 ([3]; Homo sapiens, HeLa, 24 h) was 1.5 ± 0.3 µM.

In the case of `CC[C@]1(O)C[C@@H]2CN(CCc3c([nH]c4ccccc34)[C@@](C(=O)OC)(c3cc4c(cc3OC)N(C)[C@H]3[C@@](O)(C(=O)OC)[C@H](OC(C)=O)[C@]5(CC)C=CCN6CC[C@]43[C@@H]65)C2)C1` [Vinblastine, reference compound], the IC50 [1] is reported as 3.2 ± 1.2 µM, the IC50 [2] is reported as 7.5 ± 1.3 µM and the IC50 ([3]; Homo sapiens, HeLa, 24 h) is reported as 5.7 ± 1.1 µM.

Compound `N#CC1=C(N)Oc2ccc3ccc(O)cc3c2C1c1c(F)c(F)c(F)c(F)c1F` (stereo not shown) [4p, 3-Amino-9-Hydroxy-1-(Perfluorophenyl)-1H-Benzo[f]chromene-2-Carbonitrile] has an IC50 [1] of 4.2 ± 0.3 µM, an IC50 [2] of 4.5 ± 1.2 µM and an IC50 ([3]; Homo sapiens, HeLa, 24 h) of 3.9 ± 0.4 µM. For the same compound, the melting point was 299 to 300 °C.

Work on `N#CC1=C(N)Oc2ccc3ccc(O)cc3c2C1c1c(Cl)cccc1Cl` (stereo not shown) [4f, 3-Amino-1-(2,6-Dichlorophenyl)-9-Hydroxy-1H-Benzo[f]chromene-2-Carbonitrile] yielded an IC50 [1] of 7 ± 0.4 µM, an IC50 [2] of 26.6 ± 3.1 µM and an IC50 ([3]; Homo sapiens, HeLa, 24 h) of 4.1 ± 0.3 µM. It also gave a melting point of 196 to 197 °C.

With `COc1cccc(C2C(C#N)=C(N)Oc3ccc4ccc(O)cc4c32)c1O` (stereo not shown) [4j, 3-Amino-1-(2-Hydroxy-3-Methoxyphenyl)-9-Hydroxy-1H-Benzo[f]chromene-2-Carbonitrile] the IC50 [1] was 97.4 ± 0.8 µM, the IC50 [2] was 33.5 ± 3.5 µM and the IC50 ([3]; Homo sapiens, HeLa, 24 h) was 50.4 ± 1.3 µM. It also gave a melting point of 269 to 270 °C.

Compound `COc1cc(C2C(C#N)=C(N)Oc3ccc4ccc(O)cc4c32)cc(OC)c1OC` (stereo not shown) [4o, 3-Amino-1-(3,4,5-Trimethoxyphenyl)-9-Hydroxy-1H-Benzo[f]chromene-2-Carbonitrile] has an IC50 [7] of 20.4 ± 0.3 µM, an IC50 [8] of 22.2 ± 0.4 µM and an IC50 [5] of 23.7 ± 0.4 µM. For the same compound, the IC50 [1] was 3.1 ± 0.1 µM, the IC50 [2] was 2.1 ± 0.8 µM and the IC50 ([3]; Homo sapiens, HeLa, 24 h) was 5.7 ± 1.8 µM. For the same compound, the melting point was 252 to 253 °C.

`COc1cc(OC)c(C2C(C#N)=C(N)Oc3ccc4ccc(O)cc4c32)cc1OC` (stereo not shown) [4n, 3-Amino-1-(2,4,5-Trimethoxyphenyl)-9-Hydroxy-1H-Benzo[f]chromene-2-Carbonitrile] showed an IC50 [1] of 2.4 ± 0.4 µM, an IC50 [2] of 7.6 ± 1.2 µM and an IC50 ([3]; Homo sapiens, HeLa, 24 h) of 4.9 ± 0.5 µM. It also gave a melting point of 235 to 236 °C.

`COc1ccc(C2C(C#N)=C(N)Oc3ccc4ccc(O)cc4c32)c(OC)c1OC` (stereo not shown) [4m, 3-Amino-1-(2,3,4-Trimethoxyphenyl)-9-Hydroxy-1H-Benzo[f]chromene-2-Carbonitrile] showed an IC50 [1] of 3.4 ± 0.5 µM, an IC50 [2] of 6.5 ± 1.3 µM and an IC50 ([3]; Homo sapiens, HeLa, 24 h) of 8.8 ± 0.5 µM. For the same compound, the melting point was 265 to 266 °C.

Compound `COc1ccc(C2C(C#N)=C(N)Oc3ccc4ccc(O)cc4c32)c(OC)c1` (stereo not shown) [4k, 3-Amino-1-(2,4-Dimethoxyphenyl)-9-Hydroxy-1H-Benzo[f]chromene-2-Carbonitrile] has an IC50 [7] of 25.3 ± 1.3 µM, an IC50 [8] of 24.2 ± 0.1 µM and an IC50 [5, 9] of 36.8 ± 0.2 µM. For the same compound, the IC50 [1] was 1.7 ± 0.3 µM, the IC50 [2] was 3.7 ± 0.3 µM and the IC50 [3] was 6.7 ± 0.1 µM. For the same compound, the melting point was 242 to 243 °C.

Compound `COc1ccc(C2C(C#N)=C(N)Oc3ccc4ccc(O)cc4c32)cc1OC` (stereo not shown) [4l, 3-Amino-1-(3,4-Dimethoxyphenyl)-9-Hydroxy-1H-Benzo[f]chromene-2-Carbonitrile] has an IC50 [1] of 4 ± 1.3 µM, an IC50 [2] of 4.1 ± 0.9 µM and an IC50 ([3]; Homo sapiens, HeLa, 24 h) of 5.3 ± 0.2 µM. It also gave a melting point of 268 to 269 °C.
